Experiments:
[1] = humans, after mushroom consumption (0 g, 8 g, 16 g doses); cited from earlier work
[2] = tested on: glutathione; assay: Glutathione levels in plasma, cortex and midbrain of Parkinson's model mice, by glutathione assay; type: in vivo, mouse; settings: compared with knockout mice
Description: Matched cohorts of SNCA transgenic mouse model of PD were used to measure the therapeutic efficacy of ErgoD2™ to control movement disorder, improve grip strength, and lower alpha-synuclein in the cortex and/or midbrain of the PD animals. Additionally, alpha-synuclein was measured in the plasma, and glutathione was measured in the plasma, cortex and midbrain. IL-6 measurements and an immunohistochemistry study will also be performed on intestinal tissues to see if there are pathologic variances in intestinal function between cohorts, which could be associated with disease onset and progression.
Concentrations of glutathione present in midbrain homogenates (nM), as measured by glutathione assay.
Concentrations of glutathione present in cortex homogenates (nM), as measured by glutathione assay. Error bars represent±standard error. Glutathione is a major protective antioxidant in animal cells. It is present most abundantly in its reduced form (GSH) in healthy cells. The levels of GSH and glutathione disulfide (GSSG), the oxidized form, are used as indicators of oxidative stress and overall cell health. One of the well-established markers of PD is a decrease in glutathione levels in the substantia nigra (SN). This decrease is specific to the SN and is not observed in other sections of the PD brain.

[3] = tested on: insulin resistance; settings: cited from earlier work

Question: For `C[N+](C)(C)[C@@H](Cc1c[nH]c(=S)[nH]1)C(=O)[O-]` [L-Ergothioneine], which “time of peak of ET in red blood cells (RBC)” value [1] is on record?
Answer: 2 h

Question: With `CC(=O)N[C@@H](CS)C(=O)O` [NAC, n-acetyl cysteine] as the molecule, how does the “cortex glutathione concentration, treated transgenic versus knockout mice” value [2] read?
Answer: no significant differences

Question: Which results are given for vitamin D?
Answer: improvement of insulin resistance ([3]; bringing 25(OH)D levels above 80 nmol/L): 12%; improvement in insulin sensitivity ([3]; increasing vitamin D levels from 25 to 75 nmol/L): 60%

Reference: patent US20140363379A1, “NUTRITIONAL APPROACH TO THE USE OF ERGOTHIONEINE AND VITAMIN D2 FOR HAIR, NAIL AND SKIN GROWTH” (ENTIA BIOSCIENCES, INC., priority 2011, published 2014)
